Measurements reported in ChEMBL document CHEMBL1201862, “PubChem BioAssay data set” (2004).
The source made the active and inactive calls.

Tests used:
[1] = molecular target: FAD-linked sulfhydryl oxidase ALR (Homo sapiens, UniProt P55789); assay: inhibitors of human ALR sulfhydryl oxidase, dose response, biochemical, H2O2 detection, luminescence, cherry-pick (AID 493248)
Leucine aminopeptidase = molecular target: T1, Leucine aminopeptidase (Plasmodium falciparum 3D7, UniProt Q8IL11); assay: P. falciparum M17LAP inhibitors, primary screen, biochemical, fluorogenic H-Leu-NHMec substrate, 1536-well (AID 1619); assay type: functional
T1 sequence (Q8IL11 whole entry): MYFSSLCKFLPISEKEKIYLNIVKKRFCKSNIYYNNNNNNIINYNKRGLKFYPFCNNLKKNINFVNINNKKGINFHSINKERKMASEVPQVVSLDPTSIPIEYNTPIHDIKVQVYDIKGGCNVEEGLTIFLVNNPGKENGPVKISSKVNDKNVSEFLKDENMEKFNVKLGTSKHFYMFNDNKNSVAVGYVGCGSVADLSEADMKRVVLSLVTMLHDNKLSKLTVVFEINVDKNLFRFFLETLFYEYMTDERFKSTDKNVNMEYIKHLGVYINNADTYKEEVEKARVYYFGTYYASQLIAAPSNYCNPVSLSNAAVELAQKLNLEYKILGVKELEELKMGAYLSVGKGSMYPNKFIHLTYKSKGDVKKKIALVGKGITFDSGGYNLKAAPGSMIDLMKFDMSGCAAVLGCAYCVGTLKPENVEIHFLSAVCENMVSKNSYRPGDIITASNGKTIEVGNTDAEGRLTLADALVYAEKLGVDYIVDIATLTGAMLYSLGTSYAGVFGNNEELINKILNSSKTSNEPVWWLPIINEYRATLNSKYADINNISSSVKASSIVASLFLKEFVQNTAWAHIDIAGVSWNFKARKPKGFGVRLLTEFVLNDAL

Aminopeptidase N = molecular target: T2, Aminopeptidase N (Plasmodium falciparum FcB1/Columbia, UniProt O96935); assay: P. falciparum M1AAP inhibitors, biochemical, fluorogenic H-Leu-NHMec substrate, 1536-well (AID 1445); design: species or system Plasmodium falciparum 3D7, 3D7
T2 sequence (O96935 whole entry): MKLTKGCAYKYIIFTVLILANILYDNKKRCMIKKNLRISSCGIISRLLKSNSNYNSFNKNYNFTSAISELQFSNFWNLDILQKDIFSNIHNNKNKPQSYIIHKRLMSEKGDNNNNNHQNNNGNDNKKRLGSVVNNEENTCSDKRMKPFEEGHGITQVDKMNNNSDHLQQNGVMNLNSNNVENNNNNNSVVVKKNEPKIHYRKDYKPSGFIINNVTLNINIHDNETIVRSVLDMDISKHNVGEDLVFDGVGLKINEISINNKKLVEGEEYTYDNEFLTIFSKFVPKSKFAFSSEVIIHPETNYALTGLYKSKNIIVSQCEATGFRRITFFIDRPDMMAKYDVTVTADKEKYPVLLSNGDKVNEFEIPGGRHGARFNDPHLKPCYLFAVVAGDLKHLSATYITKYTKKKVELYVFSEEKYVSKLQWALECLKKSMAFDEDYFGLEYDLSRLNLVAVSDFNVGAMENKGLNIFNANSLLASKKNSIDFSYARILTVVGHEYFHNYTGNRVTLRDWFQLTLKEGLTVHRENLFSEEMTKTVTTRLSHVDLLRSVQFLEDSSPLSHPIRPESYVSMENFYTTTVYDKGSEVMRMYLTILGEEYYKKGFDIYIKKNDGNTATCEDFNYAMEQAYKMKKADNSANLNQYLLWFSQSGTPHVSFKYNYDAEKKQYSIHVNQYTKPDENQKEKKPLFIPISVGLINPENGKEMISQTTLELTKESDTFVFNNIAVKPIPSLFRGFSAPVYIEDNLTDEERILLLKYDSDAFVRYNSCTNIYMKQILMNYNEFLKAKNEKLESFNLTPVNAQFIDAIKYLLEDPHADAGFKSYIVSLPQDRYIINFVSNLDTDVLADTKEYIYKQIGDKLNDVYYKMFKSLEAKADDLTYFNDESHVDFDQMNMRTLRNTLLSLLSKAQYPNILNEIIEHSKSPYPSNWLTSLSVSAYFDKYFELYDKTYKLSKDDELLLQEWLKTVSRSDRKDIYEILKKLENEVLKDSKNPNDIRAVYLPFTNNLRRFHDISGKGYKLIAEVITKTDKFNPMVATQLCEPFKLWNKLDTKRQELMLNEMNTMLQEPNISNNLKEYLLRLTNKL

cells = assay type: functional
[2] = Vero E6 cell cytotoxicity, dose response, cytotoxicity control for non-replicating M. tuberculosis project, secondary assay (AID 492998); assay type: functional, VeroE6; conditions: Vero C1008
[3] = THP-1 cell cytotoxicity, dose response, cytotoxicity control for non-replicating M. tuberculosis project (AID 489025); assay type: functional
[4] = growth suppression of beta-catenin-knockout colon cells, dose response, cell-based, HCT116, human colon tumor (AID 1045); assay type: functional;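 also: HCT116 colon tumor cells with beta catenin knocked out; cells exposed to compound for 60 hours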
[5] = growth suppression of PTEN-null colon cells, dose response, cell-based, HCT116 PTEN knockout (AID 1047); assay type: functional;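 also: HCT116 colon tumor cells with PTEN knocked out; cells exposed to compound for 60 hours before readout; potency for loss of cell viability measured by luminescence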
[6] = molecular target: DNA dC->dU-editing enzyme APOBEC-3A (Homo sapiens, UniProt P31941); assay: Dose Response confirmation of small molecule APOBEC3A DNA Deaminase Inhibitors via a fluorescence-based single-stranded DNA deaminase assay. [Related pubchem assays (depositor defined):AID493011, AID493024]; assay type: functional
Sequence of DNA dC->dU-editing enzyme APOBEC-3A (P31941 whole entry): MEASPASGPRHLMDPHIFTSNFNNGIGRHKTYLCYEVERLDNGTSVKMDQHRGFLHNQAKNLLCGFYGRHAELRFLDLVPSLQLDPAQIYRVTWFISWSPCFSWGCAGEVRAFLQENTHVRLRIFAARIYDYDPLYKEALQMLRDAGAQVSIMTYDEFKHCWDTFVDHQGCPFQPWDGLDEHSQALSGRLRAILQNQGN

[7] = molecular target: DNA dC->dU-editing enzyme APOBEC-3G (Homo sapiens, UniProt Q9HC16); assay type: functional;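 also: Dose-response counterscreen measuring inhibition of APOBEC3G DNA deaminase activity, run while confirming APOBEC3A inhibitors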
Sequence of DNA dC->dU-editing enzyme APOBEC-3G (Q9HC16 whole entry): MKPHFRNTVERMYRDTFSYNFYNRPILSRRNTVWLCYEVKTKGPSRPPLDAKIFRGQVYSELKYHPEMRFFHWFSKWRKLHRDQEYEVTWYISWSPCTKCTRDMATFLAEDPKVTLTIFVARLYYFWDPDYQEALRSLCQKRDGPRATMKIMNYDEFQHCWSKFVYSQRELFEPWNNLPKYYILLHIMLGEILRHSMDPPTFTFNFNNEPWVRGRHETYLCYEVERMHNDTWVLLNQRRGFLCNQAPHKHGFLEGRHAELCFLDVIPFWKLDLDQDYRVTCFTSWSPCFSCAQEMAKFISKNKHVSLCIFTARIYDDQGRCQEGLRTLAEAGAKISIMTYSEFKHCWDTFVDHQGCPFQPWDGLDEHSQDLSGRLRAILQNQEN

HEK293 [8] = assay: cells; assay type: functional, cell-based; conditions: Homo sapiens
INS1 = assay: beta cell apoptosis inhibitors, cytokine rescue, dose response, luminescence, retest (AID 449756); assay type: functional, cell-based; conditions: Rattus norvegicus;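 also: cell death triggered by IL-1 beta plus TNF-alpha plus IFN-gamma mixture; protective hits raise ATP signal compared with cytokine alone wells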
[9] = molecular target: Nucleotide-binding oligomerization domain-containing protein 2 (Homo sapiens, UniProt Q9HC29); assay: NOD2 signaling inhibitors, cell-based, luminescence, uHTS, HEK293 (AID 1566); assay type: functional
Sequence of Nucleotide-binding oligomerization domain-containing protein 2 (Q9HC29 whole entry, the tested form may be a part): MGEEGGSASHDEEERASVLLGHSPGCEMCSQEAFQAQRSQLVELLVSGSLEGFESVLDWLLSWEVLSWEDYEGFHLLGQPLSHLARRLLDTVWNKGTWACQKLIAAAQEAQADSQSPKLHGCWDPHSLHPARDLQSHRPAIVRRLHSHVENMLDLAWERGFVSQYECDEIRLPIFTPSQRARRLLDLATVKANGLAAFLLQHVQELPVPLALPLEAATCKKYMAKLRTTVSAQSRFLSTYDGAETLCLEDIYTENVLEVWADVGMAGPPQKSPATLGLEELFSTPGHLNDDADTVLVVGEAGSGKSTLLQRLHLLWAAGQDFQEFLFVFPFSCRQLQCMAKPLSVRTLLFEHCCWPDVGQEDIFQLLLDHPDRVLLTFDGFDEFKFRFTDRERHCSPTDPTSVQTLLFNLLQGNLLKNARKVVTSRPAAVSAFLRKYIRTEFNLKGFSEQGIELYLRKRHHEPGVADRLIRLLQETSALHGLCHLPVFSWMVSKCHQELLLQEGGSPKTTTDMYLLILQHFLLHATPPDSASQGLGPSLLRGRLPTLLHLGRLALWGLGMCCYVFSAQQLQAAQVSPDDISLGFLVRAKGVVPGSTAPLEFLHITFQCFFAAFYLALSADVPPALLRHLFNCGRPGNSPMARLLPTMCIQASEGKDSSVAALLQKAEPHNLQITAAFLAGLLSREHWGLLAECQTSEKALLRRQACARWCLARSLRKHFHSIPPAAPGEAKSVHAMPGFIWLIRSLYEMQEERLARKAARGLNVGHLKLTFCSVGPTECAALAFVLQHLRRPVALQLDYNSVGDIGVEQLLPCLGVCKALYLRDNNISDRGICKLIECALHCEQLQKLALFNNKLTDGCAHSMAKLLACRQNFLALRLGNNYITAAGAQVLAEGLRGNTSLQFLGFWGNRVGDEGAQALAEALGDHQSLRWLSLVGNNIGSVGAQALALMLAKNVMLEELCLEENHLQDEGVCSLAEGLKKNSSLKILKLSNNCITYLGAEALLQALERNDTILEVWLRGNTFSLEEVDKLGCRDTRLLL

HEK293 [10] = assay: NOD1 signaling inhibitors, primary screen, cell-based, luminescence, uHTS (AID 1578); assay type: functional; conditions: Homo sapiens
HEK293 [11] = assay: NOD2 signaling inhibitors in MDP-stimulated cells, cell-based, uHTS, luminescence (AID 2001); assay type: functional; conditions: Homo sapiens
HEK293 [12] = assay: cells; assay type: functional, cell-based; conditions: Homo sapiens; remark: listed apart in the source
HEK293 [13] = assay: cells; assay type: functional, cell-based; conditions: Homo sapiens; remark: listed apart in the source
[14] = molecular target: T3, Corticotropin-releasing factor receptor 2/Corticotropin-releasing factor-binding protein (Homo sapiens, UniProt P24387+Q13324); assay: activators of CRF receptor 2 with binding protein – uHTS hits, confirmation (AID 602473); assay type: functional; conditions: read-out: EC50_Mean
T3 sequence (Q13324 whole entry): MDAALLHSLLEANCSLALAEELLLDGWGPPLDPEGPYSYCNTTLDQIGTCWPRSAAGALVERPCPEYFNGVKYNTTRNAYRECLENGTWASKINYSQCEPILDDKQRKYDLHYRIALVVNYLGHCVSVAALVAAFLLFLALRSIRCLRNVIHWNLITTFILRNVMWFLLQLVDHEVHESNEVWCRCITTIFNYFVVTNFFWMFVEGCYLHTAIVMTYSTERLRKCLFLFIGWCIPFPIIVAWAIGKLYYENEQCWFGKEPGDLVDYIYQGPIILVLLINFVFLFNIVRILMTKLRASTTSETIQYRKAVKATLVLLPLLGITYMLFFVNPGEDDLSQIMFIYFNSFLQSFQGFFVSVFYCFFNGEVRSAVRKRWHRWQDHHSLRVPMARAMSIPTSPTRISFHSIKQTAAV
T3 sequence (P24387 whole entry): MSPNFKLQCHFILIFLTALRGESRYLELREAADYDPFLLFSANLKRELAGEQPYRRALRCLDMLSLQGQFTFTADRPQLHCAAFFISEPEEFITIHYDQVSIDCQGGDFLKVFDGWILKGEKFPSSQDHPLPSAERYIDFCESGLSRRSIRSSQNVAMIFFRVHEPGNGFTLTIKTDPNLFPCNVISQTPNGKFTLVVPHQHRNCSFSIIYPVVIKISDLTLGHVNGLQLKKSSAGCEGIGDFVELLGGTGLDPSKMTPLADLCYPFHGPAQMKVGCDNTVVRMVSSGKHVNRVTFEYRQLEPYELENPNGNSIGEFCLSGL

[15] = molecular target: T4, Short transient receptor potential channel 4 (Mus musculus, UniProt Q9QUQ5); assay: mouse TRPC4 channel activators, dose response, cell-based, HEK293 TRPC4/mu-opioid, Fluo-4 calcium (AID 434937); assay type: functional
T4 sequence (Q9QUQ5 whole entry): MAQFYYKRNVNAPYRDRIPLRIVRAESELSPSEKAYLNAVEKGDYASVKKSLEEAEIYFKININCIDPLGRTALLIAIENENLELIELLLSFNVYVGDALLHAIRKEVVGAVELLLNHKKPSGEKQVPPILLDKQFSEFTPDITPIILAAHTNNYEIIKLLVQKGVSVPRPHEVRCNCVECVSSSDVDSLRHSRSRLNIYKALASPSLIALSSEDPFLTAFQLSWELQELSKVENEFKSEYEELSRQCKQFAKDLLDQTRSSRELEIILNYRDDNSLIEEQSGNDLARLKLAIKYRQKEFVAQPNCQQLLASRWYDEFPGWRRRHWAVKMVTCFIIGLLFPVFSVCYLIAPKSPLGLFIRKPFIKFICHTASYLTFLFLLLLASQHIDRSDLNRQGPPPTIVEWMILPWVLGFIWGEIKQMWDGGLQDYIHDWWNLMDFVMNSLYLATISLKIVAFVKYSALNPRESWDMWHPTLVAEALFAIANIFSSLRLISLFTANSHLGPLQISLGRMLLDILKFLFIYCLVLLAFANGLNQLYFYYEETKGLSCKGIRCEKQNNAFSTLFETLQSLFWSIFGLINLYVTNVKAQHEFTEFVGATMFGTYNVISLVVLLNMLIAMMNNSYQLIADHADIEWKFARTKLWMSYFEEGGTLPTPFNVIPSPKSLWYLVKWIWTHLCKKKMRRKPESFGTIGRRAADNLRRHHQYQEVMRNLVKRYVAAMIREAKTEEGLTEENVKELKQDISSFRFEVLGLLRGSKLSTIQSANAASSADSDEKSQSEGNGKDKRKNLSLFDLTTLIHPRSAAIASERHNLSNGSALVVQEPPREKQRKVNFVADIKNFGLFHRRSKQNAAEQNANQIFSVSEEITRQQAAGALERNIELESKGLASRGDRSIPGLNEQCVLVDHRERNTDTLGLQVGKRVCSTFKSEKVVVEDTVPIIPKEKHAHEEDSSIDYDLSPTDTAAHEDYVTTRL

[16] = C. albicans growth with fluconazole, confirmation, fluorescence, retest (AID 2467); assay type: functional, cell-based
[17] = NIH-3T3 fibroblast cytotoxicity, dose response, cytotoxicity control, cell-based, fluorescence, Alamar Blue, secondary assay (AID 2327); assay type: functional;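 also: NIH-3T3 mouse fibroblasts cultured with fluconazole at 8 µg/mL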

Sequence of FAD-linked sulfhydryl oxidase ALR (P55789 whole entry): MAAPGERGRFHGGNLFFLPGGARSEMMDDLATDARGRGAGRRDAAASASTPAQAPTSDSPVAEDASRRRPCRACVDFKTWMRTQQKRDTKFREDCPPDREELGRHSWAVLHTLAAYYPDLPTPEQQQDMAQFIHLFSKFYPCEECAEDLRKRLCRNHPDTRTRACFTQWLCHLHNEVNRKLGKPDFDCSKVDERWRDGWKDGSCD

With Nc1n[nH]c(N)c1N=Nc1ccccc1 the AC50 [1] was 6.02 µM (active) and the IC50 (Leucine aminopeptidase) was 7.03 µM (active).

In the case of CSc1nc2nc(-c3ccccc3)cc(O)n2n1, the IC50 (Leucine aminopeptidase) was 28.6 µM (active).

For COc1ccc(/C=N/NC2=NC(=O)C(CC(=O)O)S2)cc1OCc1ccc(Cl)cc1 (configuration not stated), the IC50 (Aminopeptidase N) was 66.7 µM (active) and the IC50 (Leucine aminopeptidase) was 20.3 µM (active).

With COc1ccc(/C=C2\COc3ccccc3C2=O)cc1OC the IC50 (cells) was 12.8 µM (active), the CC50 [2] was > 20 µM (active) and the CC50 [3] was 17.9 µM (active). For the same molecule, the EC50 [4] was 7.29 µM (active) and the EC50 [5] was 7.42 µM (active).

In the case of CC1=CC(C)(C)[N+](C)(C)c2ccccc21, the IC50 [6] was 2.6 µM (active) and the IC50 [7] was 2.98 µM (active).

In the case of COc1ccc(/C=N/NC(=S)Nc2cccc(C(=O)O)c2)cc1, the IC50 (Leucine aminopeptidase) was 19.6 µM (active).

For Cc1ccc(-c2c(C#N)c(N)n3c(nc4ccccc43)c2C#N)cc1, the IC50 (HEK293 [8]) was 6.06 µM (active), the AC50 (INS1) was 3.86 µM (active) and the EC50 [9] was > 20 µM (inactive). For the same molecule, the EC50 (HEK293 [10]) was 2.11 µM (active), the IC50 (HEK293 [11]) was 6.22 µM (active) and the IC50 (HEK293 [12]) was > 20 µM (inactive). For the same molecule, the IC50 (HEK293 [13]) was 11 µM (active).

For CC1CN(C(=O)c2ccc(NS(=O)(=O)c3ccc(C(C)(C)C)cc3)cc2)CC(C)O1 (configuration not stated), the EC50 [14] was 15.7 µM (active) and the EC50 [15] was 5.96 µM (active).

For Cc1nonc1C(=O)N/N=C/c1ccc([N+](=O)[O-])o1, the IC50 (HEK293 [8]) was > 20 µM (inactive), the IC50 (cells) was 8.02 µM (active) and the EC50 [16] was 1.82 µM (active). The EC50 [9] was 10.9 µM (active), the EC50 (HEK293 [10]) was 9.04 µM (active) and the IC50 (HEK293 [11]) was > 20 µM (inactive). The IC50 (HEK293 [12]) was > 20 µM (inactive), the EC50 [17] was 30.2 µM (active) and the IC50 (HEK293 [13]) was > 20 µM (inactive).

For COc1ccc(-c2nn(-c3ccccc3C)cc2CNC(C)c2cn(C)nc2C)cc1F (configuration not stated), the EC50 [15] was 1.68 µM (active).
